Experimental data reported in patent publication US20260216196A1, “IMIDAZO[1,2-A]PYRIDINE AND IMIDAZO[1,2-A]PYRAZINE DERIVATIVES AS MLLT1 AND MLLT3 INHIBITORS” (DARK BLUE THERAPEUTICS LTD., priority 2022, published 2026).

Experiments:
MLLT1 = MLLT1 (Homo sapiens, UniProt Q03111); conditions: read-out: MLLT1 assay IC50; HTRF, 6His tagged MLLT1, biotinylated H3K9cro peptide; compound 20 μM to 20 nM, 11 data points in duplicate
MLLT3 = MLLT3 (Homo sapiens, UniProt P42568); test: HTRF IC50 determination assay, MLLT3 / H3K9cro peptide displacement; conditions: read-out: MLLT3 assay IC50, 6His tagged MLLT3, biotinylated H3K9cro peptide, compound 20 μM to 20 nM, 11 data points in duplicate
Chain of MLLT3 (P42568 whole entry): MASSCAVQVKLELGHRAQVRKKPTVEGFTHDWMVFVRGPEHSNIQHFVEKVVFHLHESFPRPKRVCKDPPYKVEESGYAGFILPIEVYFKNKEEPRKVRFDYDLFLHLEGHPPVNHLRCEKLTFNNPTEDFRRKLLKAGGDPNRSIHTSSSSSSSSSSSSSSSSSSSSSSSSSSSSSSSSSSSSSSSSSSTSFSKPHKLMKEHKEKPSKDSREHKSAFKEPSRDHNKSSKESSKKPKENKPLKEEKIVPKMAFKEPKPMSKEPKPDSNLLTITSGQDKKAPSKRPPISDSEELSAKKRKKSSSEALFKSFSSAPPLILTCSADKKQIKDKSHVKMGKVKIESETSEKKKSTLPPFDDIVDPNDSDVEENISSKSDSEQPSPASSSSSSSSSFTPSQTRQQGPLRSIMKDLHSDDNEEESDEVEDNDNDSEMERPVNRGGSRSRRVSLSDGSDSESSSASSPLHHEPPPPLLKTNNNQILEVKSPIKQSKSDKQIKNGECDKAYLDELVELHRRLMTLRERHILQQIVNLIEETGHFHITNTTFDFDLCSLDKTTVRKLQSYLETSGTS

Chain of MLLT1 (Q03111 whole entry): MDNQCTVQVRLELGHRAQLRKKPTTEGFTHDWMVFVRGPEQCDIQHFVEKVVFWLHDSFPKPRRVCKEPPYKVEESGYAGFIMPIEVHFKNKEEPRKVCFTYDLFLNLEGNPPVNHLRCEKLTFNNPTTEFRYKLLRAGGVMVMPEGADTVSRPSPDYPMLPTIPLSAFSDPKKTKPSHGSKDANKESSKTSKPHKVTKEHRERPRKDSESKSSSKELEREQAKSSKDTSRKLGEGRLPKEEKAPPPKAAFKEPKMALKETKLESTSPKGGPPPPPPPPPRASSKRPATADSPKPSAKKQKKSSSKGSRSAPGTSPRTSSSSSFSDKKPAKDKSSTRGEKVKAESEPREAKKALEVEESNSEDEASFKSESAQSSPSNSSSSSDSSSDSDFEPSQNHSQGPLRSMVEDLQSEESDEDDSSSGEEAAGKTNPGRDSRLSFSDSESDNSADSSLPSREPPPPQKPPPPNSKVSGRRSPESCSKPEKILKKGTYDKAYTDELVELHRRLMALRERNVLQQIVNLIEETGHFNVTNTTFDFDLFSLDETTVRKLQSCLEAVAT

CO[C@@H]1C[C@@H](c2cn3cc(NC(=O)c4ccc5c(cnn5C)c4)ncc3n2)N(C)C1 (stereo in doubt) [Example 104, N-{2-[(rel-2S,4R)-4-methoxy-1-methylpyrrolidin-2-yl]imidazo[1,2-a]pyrazin-6-yl}-1-methylindazole-5-carboxamide] gave an IC50 (MLLT1) of 150 to 1500 nM and an IC50 (MLLT3) of 1500 to 20000 nM.
